Results from article PMC10901353, “Identification of a potent and selective LAPTc inhibitor by RapidFire-Mass Spectrometry, with antichagasic activity” (PLOS Neglected Tropical Diseases, 2024).
Where “and” joins values, the source holds several entries; their conditions need not be identical. Identical values can stand only once. Like-named read-outs stand apart in the source and are kept apart here.

What was measured:
[1] = biological target: T1, LAPTc (acidic M17 leucyl-aminopeptidase from T. cruzi) (Trypanosoma cruzi, UniProt V5BWE3); assay: High-throughput single point screening for LAPTc inhibitors by RapidFire-MS; format: biochemical; conditions: primary screen, 30 μM, single replicate; read-out: Percent Inhibition
Description: (§1) This assay was previously described. The assay was performed in 384-well clear F-bottom polypropylene plates with a final reaction volume of 15 μL. The reaction mixture contained 7.5 μL LAPTc in 50 mM Tris-HCl, pH 7.5, 0.005% NP-40 and 7.5 μL LSTVIVR peptide substrate (Cambridge Research Biochemicals, Billingham, UK) in the same buffer was added to start the reaction. The reaction was performed at room temperature for 40 min and then stopped with 85 μL 1% formic acid containing 0.15 mg/mL STVIVR* internal standard (Cambridge Research Biochemicals, Billingham, UK).
Single point screening of a library of 3329 compounds was performed in 384-well clear plates (Greiner 781101) at room temperature. Test compounds (45 nL in DMSO) were transferred to assay plates by an ECHO 550 acoustic dispenser (Labcyte). LAPTc was tested at 3 nM with 150 μM (approximately the value of the apparent Michaelis-Menten constant -appKM- [16]) LSTVIVR peptide substrate in a 40 min reaction. Before addition of substrate, LAPTc was preincubated with 45 nL compounds or DMSO for 15 min. Compounds, dissolved in DMSO, were tested at 30 μM. Controls without compound (the same volume of DMSO, 0% inhibitory effect) and without enzyme and compound (100% inhibitory effect) were prepared. The experiment was performed without replicates. The remaining experimental conditions were maintained as previously described. Data were processed and analysed through ActivityBase XE (IDBS). The selection criterion for hits in this single point screen was percent inhibition larger than the mean plus three standard deviations. All primary screening data are available in ChEMBL (see Data Availability statement).

[2] = biological target: T1, LAPTc (acidic M17 leucyl-aminopeptidase from T. cruzi); assay: Dose-response studies for LAPTc inhibition by RapidFire-MS; format: biochemical; conditions: for Emax: read-out: Maximum Effect; for Hit Confirmation: whether primary screen hit confirmed in potency experiment
Description: as §1
To generate half-maximum inhibitory concentration (IC50) data for LAPTc, 10-point dose-response curves with 100 μM as highest concentration and 1:2 dilution in DMSO (0.195–100 μM range) were prepared in 384 well plates. All other experimental conditions were as described above. All IC50 curve fitting was performed by four-parameter logistic dose-response curve fit using ActivityBase XE (IDBS). At least three replicates were generated for each hit compound.

[3] = test system: intracellular T. cruzi amastigotes; assay: T. cruzi intracellular assay (high-content imaging, infected Vero cells); format: cell-based, Trypanosoma cruzi; design: Max Effect (T. cruzi): unit not given here; conditions: for EC50 / Emax: Trypanosoma cruzi, Vero; for Emax: read-out: Max Effect (T. cruzi)
Description: T. cruzi parasite, TcI strain Silvio X10/7 subclone A1 [34] was maintained in culture as previously described. Parasites were maintained as amastigotes by passaging on a weekly basis in Vero cells. Culture maintenance infections were carried out at an MOI (multiplicity of infection) of 1.5.
(§2) This assay was performed as described with the only modification that treatment was 96 h instead of 72 h. Briefly, Vero cells were infected overnight with tissue culture derived T. cruzi trypomastigotes in T225 tissue culture flasks (MOI 5). Any remaining free trypomastigotes were washed away with serum free MEM and the infected Vero cells were harvested by trypsinisation. Compounds (250 nL in DMSO) were dispensed using LabCyte ECHO (Beckman Coulter Life Sciences, USA) into each well of Corning black flat bottomed 384-well plates (Corning, USA). […] The infected Vero cells were then plated into the plates containing the compounds, at 4,000 cells per well in MEM media with 1% FCS. After 96 h incubation at 37°C in presence of 5% CO2, the plates were fixed with 4% formaldehyde for 20 min at room temperature and stained with 5 μg/mL Hoechst 33342. The plates were imaged on a Perkin Elmer Operetta high-content imaging system using a 20× objective. Images were analyzed using the Columbus system (Perkin Elmer). The algorithm first identified the Vero nuclei followed by demarcation of the cytoplasm and identification of intracellular amastigotes. This algorithm reported percent infected Vero cell and total number of Vero cells. All potency determinations were carried out in at least three independent replicates and are reported as pEC50 +/- standard deviation. pEC50 = -log(EC50[M]).

[4] = Cytotoxicity against infected Vero host cells in T. cruzi intracellular assay; format: cell-based, African green monkey; design: Max Effect (Vero): unit not given here; conditions: African green monkey, Vero cells infected with T. cruzi; infected Vero host cells, 96 h; read-out: pCC50 (Vero) +/- StDev (converted)
Description: (§3) Briefly, these cells were maintained at 37°C and 5% CO2 in MEM supplemented with 10% FCS, sub-culturing every 2–3 days at a ratio of 1:5 after 5 min treatment with Trypsin-EDTA (Gibco).
as §2, with “After 96 h incubation at 37°C in presence of 5% CO2, the plates were fixed with 4% formaldehyde for 20 min at room temperature and stained with 5 μg/mL Hoechst 33342.” left out

Vero cells = assay: as above; format: cell-based, African green monkey; design: Max Effect (Vero): unit not given here; conditions: for Max Effect (Vero) / pEC50 (Vero): individual replicates
Description: as §3
as §2, with “After 96 h incubation at 37°C in presence of 5% CO2, the plates were fixed with 4% formaldehyde for 20 min at room temperature and stained with 5 μg/mL Hoechst 33342.” left out

[5] = Cytotoxicity assay on human HepG2 cells (resazurin); format: cell-based; conditions: human, HepG2 cells, 72 h
HepG2 cells = assay: as above; format: cell-based; conditions: for Max Effect (HepG2) / pEC50 (HepG2): individual replicates
[6] = Initial hit confirmation, single replicate
[7] = Initial hit confirmation, single replicate, read-out: pIC50 (converted)
[8] = Replicate data generation, individual replicates
[9] = Replicate data generation, individual replicates, read-out: pIC50 (converted)
[10] = average of four independent replicates, read-out: pIC50 +/- StDev (LAPTc) (converted)
[11] = 96 h, four independent experiments, read-out: pEC50 (T. cruzi) +/- StDev (converted)
[12] = individual replicates, read-out: pEC50 (T. cruzi) (converted)
[13] = two independent experiments, read-out: pCC50 (HepG2) (converted)

T1 sequence (V5BWE3 entry or part of it): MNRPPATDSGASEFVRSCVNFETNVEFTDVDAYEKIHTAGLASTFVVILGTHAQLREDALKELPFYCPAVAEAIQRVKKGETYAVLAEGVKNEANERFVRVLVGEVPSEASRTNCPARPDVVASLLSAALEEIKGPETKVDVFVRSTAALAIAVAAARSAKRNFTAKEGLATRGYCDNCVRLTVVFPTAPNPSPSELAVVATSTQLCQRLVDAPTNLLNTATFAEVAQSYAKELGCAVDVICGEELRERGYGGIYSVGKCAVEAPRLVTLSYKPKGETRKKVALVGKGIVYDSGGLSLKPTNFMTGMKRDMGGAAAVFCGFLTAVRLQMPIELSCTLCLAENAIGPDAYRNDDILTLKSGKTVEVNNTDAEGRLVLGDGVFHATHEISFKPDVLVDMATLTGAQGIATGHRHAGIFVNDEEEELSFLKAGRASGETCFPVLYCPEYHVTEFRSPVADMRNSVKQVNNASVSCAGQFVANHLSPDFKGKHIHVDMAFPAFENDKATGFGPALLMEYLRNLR

Row | SMILES | inhibition at 30 µM [1] [%] | Hill Slope [2, 6] | Emax [2, 6] [%] | IC50 [2, 7] [µM] | Hill Slope [2, 8] | Maximum Effect [2, 8] | Emax [2, 8] [%] | IC50 [2, 9] | IC50 [2, 10] [µM] | Hit Confirmation [2] | EC50 [3, 11] [µM] | Emax ([3]; individual replicates) [%] | EC50 [3, 12] [µM] | Max Effect (T. cruzi) ([3]; individual replicates) | CC50 at 96 h [4] [µM] | Max Effect (Vero) (Vero cells) | pEC50 (Vero) (Vero cells) | CC50 at 72 h [5, 13] [µM] | Max Effect (HepG2) (HepG2 cells) | pEC50 (HepG2) (HepG2 cells) | other results
1 | c1ccc(Cc2ccc(OCCn3ccnc3)cc2)cc1 [Compound 13] | 41 | 1.3 | 77 | 31.6 | 0.9 and 1.3 and 1.5 | 74% | 67 | 31.6 µM and 15.8 µM | 21.9 | confirmed | 2.14 | 94 | 1.58 | 97 and 84 and 87 | 5.01 | 95 and 94 and 89 and 87 | 5.3 and 5.4 and 5.2 | 43.7 | 81 and 82 | 4.4 | EC50 ([3]; 96 h, read-out: EC50 (T. cruzi amastigotes)): 2 µM; pEC50 (T. cruzi) ([3]; individual replicates): 5.6 and 5.7; Selectivity index (fold window Tc/Vero) (Vero cells): 2.3 fold; CC50 at 72 h ([5]; read-out: CC50 (HepG2)): 43 µM; Selectivity window based on the HepG2 data (HepG2 cells; T. cruzi vs HepG2): 20 fold
2 | Nc1[nH]cnc1-c1nc(-c2ccccc2)cs1 [Compound 7] | 56 | 1.2 | 90 | 2 | 1.7 and 1.5 | 50% and 61% | 53 |  | 3.89 | confirmed | 38.9 |  | 31.6 | 59 and 37 and 30 | 10.2 | 78 and 73 | 5.1 and 4.8 and 5.2 | > 100 | 3 and 4 | < 4.0 | pEC50 (T. cruzi) ([3]; individual replicates): < 4.3 and 4.3
3 | O=C(CN1NS(=O)(=O)c2ccccc2C1=O)NCCc1ccccc1 [Compound 6] | 56 | 0.543 | 68 | 20 | 0.9 and 0.54 and 0.7 | 72% and 73% | 76 | 7.94 µM and 12.6 µM and 5.01 µM | 9.77 | confirmed | > 50.1 | 11 | > 50.1 | 20 and 14 and 16 | > 50.1 | 8.54 and 13 and 11 and 18 | < 4.3 | > 100 | 3.48 and 3.47 | < 4.0 | 
4 | CCCS(=O)(=O)c1ccc(NS(=O)(=O)c2sc3ccc(Cl)cc3c2C)cc1 [Compound 24] | 29 | 2.4 | 96 | 31.6 | 2.4 and 2.3 and 2.6 |  | 99 | 12.6 µM and 15.8 µM | 17.8 | confirmed | 14.8 |  |  | 100 and 75 and 105 and 84 | 11.5 | 92 and 90 and 88 and 91 | 4.9 and 5.0 | > 100 | -2 and -0.697 | < 4.0 | pEC50 (T. cruzi) ([3]; individual replicates): 4.8 and 4.7 and 5.1
5 | NC(=O)C1Cc2ccccc2CN1C(=O)Cc1cn2ccsc2n1 (stereo not drawn) [Compound 28] | 27 | 0.9 | 87 | 10 | 1.5 and 1.4 | 72% and 74% | 73 | 39.8 µM and 50.1 µM | 30.2 | confirmed | > 50.1 | 27 | > 50.1 | 21 and 20 and 35 | > 50.1 | 32 and 37 and 15 and 16 | < 4.3 | > 100 | 2.59 and 4.33 | < 4.0 | 
